From patent publication US20120190752A1, “EXO-S-MECAMYLAMINE METHOD, USE, AND COMPOUND FOR TREATMENT” (Targacept Inc., priority 2009, published 2012) come the findings set out here.

The test system of this assay is subjects with major depressive disorder (MDD) who were inadequate responders to citalopram. Nature of the assay: SDS (Sheehan Disability Scale), Phase 2b add-on trial. Type of assay: in vivo, human. Particulars: for SDS Difference vs placebo / SDS Adj. Mean change: ITT; for SDS Difference vs placebo: Week 8 to Week 16 LOCF; for SDS Adj. Mean change: change from Week 8 (double-blind baseline) to Week 16 LOCF, add-on to citalopram. From the text:
The Sheehan Disability Scale (SDS) is widely used not only in psychiatry but also in many other chronic medical illnesses because of its generic design. It measures impairment in functioning. The scale generates 4 scores: a work disability score, a social life disability score, a family life disability score and a total score. A total score is generated through addition of the 3 individual scores (work: social life: family life). The maximum possible score is 30. In more detail, a multi-center double-blind, randomized, placebo-controlled, parallel group, flexible dose titration study of TC-5214 as adjunctive therapy in subjects with major depressive disorder (MDD) who were inadequate responders to citalopram was conducted in centers in the US and India. The study consisted of a screening period, baseline/washout period, open-label phase, double-blind phase, and a follow-up visit. Subject participation in the study could continue for up to 16 weeks of treatment. Following a washout period of up to 28 days for other antidepressants, subjects with MDD and a MADRS total score >/=28 and a Clinical Global Impression-Severity (CGI-S) score >/=4 were enrolled on Day 1 into an open-label citalopram-only phase of the study. This phase lasted 8 weeks, with citalopram (CIT) dose increased from a once-daily dose of 20 mg (Day 1 through Week 4) to 40 mg (Week 4 through Week 8). A total of 579 subjects entered the open-label citalopram phase. At Week 8, subjects who tolerated 40 mg CIT, but whose MADRS score was reduced <50% from baseline and no lower than 17, and CGI-S≧4, were considered inadequate responders. These subjects (n=270) were randomized in a double-blind fashion to receive either placebo or TC-5214-23 as add-on therapy to continued CIT. The double-blind phase of the study also lasted 8 weeks (Week 8 to Week 16). Study drug, TC-5214-23 or placebo, was started at 2 mg daily (1 mg twice per day [BID] dosing), added on to continuing CIT (40 mg PO qd). After 2 weeks of treatment, the dose of TC-5214 could be increased to 4 mg (2 mg BID) or continued unchanged, with up-titration based upon good tolerability and inadequate therapeutic response. After a further 2 weeks, the dose of TC-5214 could be increased again to 8 mg (4 mg BID) if judged appropriate by the investigator, based upon good tolerability and inadequate therapeutic response. At any time during the double-blind phase of the study, placebo or TC-5214-23 could be reduced to the previous dose level following the emergence of unacceptable adverse events (AEs). […] At this follow-up, any signs or symptoms of relapse were evaluated. If a subject was prematurely discontinued from the study between Week 8 and Week 16 for any reason, the investigator was to make every effort to perform all evaluations as per protocol, assuming the subject had reached the end of the double-blind add-on treatment phase. These evaluations were to be made as soon as possible and within 2 weeks of discontinuation. […] There was no meaningful difference in results as a function of age, gender, site, or smoking status. With regard to efficacy endpoints, the following tables present efficacy used in the ITT (Intent-to-Treat) and PP (Per Protocol) populations unless otherwise specific. The primary inference was based upon Week 16 visit using the ITT population. Change from baseline was obtained by subtracting the baseline values from the individual on-treatment values. Change from Week 16 was obtained by subtracting the Week 16 values from the individual follow-up visit (Week 18/19) values. If either the baseline or Week 16 or on-treatment or follow-up value was missing, the change from baseline or Week 16 value was also set to missing. To account for missing data, the last observation carry forward (LOCF) method was used for the ITT and PP populations. […]

[1] abbreviates: ITT Population, Double Blind Week 16 LOCF, change from Week 8 (double-blind baseline).
[2] abbreviates: ITT Population, Double Blind Week 18 LOCF (Follow-up).
The mark [3] stands for this setting: ITT and PP populations, result in words.
[4] abbreviates: PP Population, Double Blind Week 16 LOCF, change from Week 8 (double-blind baseline).
Where [5] appears, read: PP Population, Double Blind Week 18 LOCF (Follow-up).

For `CNC1(C)C2CCC(C2)C1(C)C` (stereo in doubt) [TC-5214, (S)—N,2,3,3-tetramethylnorbornan-2-amine], the “SDS Difference vs placebo” value was −4.49 (−5.96, −3.01) and the “SDS Adj. Mean change” value is −9.18 (0.53). For the same compound, under setting [1], the “SDS change Adjusted Mean” value is recorded as −9.18; the “SDS change Mean Difference between TC-5214 and Placebo” value was found to be 4.60. Further, under setting [2], the “SDS change Adjusted Mean” value is recorded as −0.46; the “SDS change Mean Difference between TC-5214 and Placebo” value was −0.23. Also, under setting [3], the “SDS individual items (Work-School; Social Life; Life-Home Responsibilities) change from baseline compared with placebo” value is “statistically significant decreases (improvements)” and the “SDS score change from baseline compared with placebo” value is reported as “statistically significant decreases (improvements)”. Under “listed as TC-5214 + CIT”, the “SDS Difference vs placebo” value is given as −4.49 and the “SDS Adj. Mean change” value is given as −9.18. Moreover, under setting [4], the “SDS change Adjusted Mean” value is on record as −10.21; the “SDS change Mean Difference between TC-5214 and Placebo” value is recorded as 4.86. For the same compound, under setting [5], the “SDS change Adjusted Mean” value is given as −0.44; the “SDS change Mean Difference between TC-5214 and Placebo” value is reported as −0.20.
